Read-outs that look alike come from different tables or passages of the source.
Legend:
Format in all cases: in vivo
[1] = Oral and transdermal celecoxib concentrations in canine sera and synovial fluid; conditions: dogs; for concentration at 7 days / concentration at 60 min: dog
Text: A Latin Square design was used employing six aged dogs with radiographic evidence of bilateral shoulder osteoarthritis. The treatment cycle consisted of six days twice daily followed by a period of seven days devoid of treatment. Blood and synovial fluid samples (from both stifles and shoulders) were collected on the last (sixth) day of drug application and on the last (seventh) day of the washout period.
Test article: 3% celecoxib in exemplary transdermal base formulation 4; ˜0.5 g gel per shoulder (2) and stifle joint (2) twice daily (i.e. 60 mg celecoxib total twice daily).
Control article: Exemplary transdermal base formulation 5; ˜1 g gel per shoulder joint twice daily.
Positive control: 30 mg celecoxib in capsule PO twice daily.
Serum and Synovial Fluid Collection:
Whole blood and synovial fluid samples were collected from the dogs 60 mins post treatment on the […], and additional samples were collected after a 7 day washout. Baseline synovial fluid was collected from untreated canine subjects. Synovial fluid was collected under sedation (medetomidine, 0.01 mg/kg) and butorphenol (0.1 mg/kg, IV). The fluid was collected by arthrocentesis into the joint following surgical preparation of the area. Synovial fluid was collected from the stifle or shoulder joints.
Analytical Method Development and Quantification:
The method for quantification of celecoxib in serum, plasma and synovial fluid was completed by the National Research Council of Canada (NRC). The results were categorized and summarized for average and deviations for each treatment group and time period.
The objective of this study was to determine if the transdermal formulations of the application were capable of delivering celecoxib either into the systemic circulation and joint synovial fluid and compare transdermal versus oral routes of administration. A canine model was used over two time periods. The first time period consisting of a twice daily drug administration regimen for six days to assess concentrations predictive of chronic use. The second time period followed immediately after, wherein all animals were withdrawn of drug administration and tested after seven days to determine if celecoxib was completely metabolized.

[2] = test system: sodium urate induced synovitis model in Beagle dogs; assay: Pain questionnaire assessment (cumulative pain score), sodium urate induced synovitis model
Description: Study Design: The study was a randomized, blinded, preclinical study using a controlled, parallel, matched-group design. Thirty-two subjects meeting the inclusion criteria were enrolled in the trial and allocated to 4 balanced groups; therefore one group received 2 treatments separated by a minimum of 14 days. Following induction of synovitis by sodium urate injections, effectiveness of transdermal formulations were evaluated using a pain questionnaire assessment and joint measurements at various time points. [table] On days 0, 2, 7 and 22, subjects who were schedules for synovitis induction were treated according to their assigned treatment condition. Test article administration occurred 30 minutes following synovitis induction, i.e. sodium urate injection. Transdermal treatment doses were measured in milligrams using an analytical scale and were then applied directly to the induce stifle. […] If IV administration of the propofol was not possible due to inaccessibility of the vein, the subjects were masked down using the isoflurane-oxygen mixture and the event was recorded on the anesthesia record. […] Specifically, the ability for each dog to walk, trot, gallop, rear, jump over a low obstacle, climb and descend stairs, jump down from a perch and general activity is evaluated in parallel to subjective evaluation of pain observed during each behavior. […]

[3] = test system: sodium urate induced synovitis model in Beagle dogs; assay: Caliper measurement of patella/patellar tendon (knee cap) width, percent baseline measure of inflammation, sodium urate induced synovitis model
Description: Study Design: The study was a randomized, blinded, preclinical study using a controlled, parallel, matched-group design. Thirty-two subjects meeting the inclusion criteria were enrolled in the trial and allocated to 4 balanced groups; therefore one group received 2 treatments separated by a minimum of 14 days. Following induction of synovitis by sodium urate injections, effectiveness of transdermal formulations were evaluated using a pain questionnaire assessment and joint measurements at various time points. [table] On days 0, 2, 7 and 22, subjects who were schedules for synovitis induction were treated according to their assigned treatment condition. Test article administration occurred 30 minutes following synovitis induction, i.e. sodium urate injection. Transdermal treatment doses were measured in milligrams using an analytical scale and were then applied directly to the induce stifle. Transdermal treatments were rubbed into the dog's skin for a minimum of 1 minute. […] If IV administration of the propofol was not possible due to inaccessibility of the vein, the subjects were masked down using the isoflurane-oxygen mixture and the event was recorded on the anesthesia record. […] Each treatment group had the same number of dogs induced in the left […]) Caliper measurements: Within thirty minutes of synovitis induction and 4.5, 8.5, 24.5 and 30.5 hours following induction (±15 minutes), the width of the patella and the patellar tendon were measured in millimeters using […] 150 mm plastic gauge calipers which measured in increments of 1 mm. […] The cumulative pain scored and stifle measurements were analyzed using a repeated-measures analysis of variance (ANOVA) with the treatment group (7 factors( ) as between-subject measure and time-point (5 factors for pain and 4 factors for the inflammation measure) as a within-subject measure. Post-hoc Fisher's test was used to examine differences as appropriate. The Statistica 11 (Statsoft, Tulsa, Okla.) statistical software package was used with significance set to […].

[4] = Oral, 30 mg capsule PO twice daily (60 mg/day), Chronic administration (6 days)
[5] = Transdermal (formulation 4), Washout (7 days)
[6] = Transdermal, 3% celecoxib in formulation 4, 120 mg/day, Chronic administration (6 days)

Structure (SMILES): Cc1ccc(-c2cc(C(F)(F)F)nn2-c2ccc(S(N)(=O)=O)cc2)cc1 [celecoxib]
- concentration at 7 days ([1]; serum, 30 mg, Oral, Washout (7 days), read-out: Serum drug concentration of celecoxib): 0 ng/mL
- concentration at 7 days ([1]; serum, topical, 60 mg, Transdermal (formulation 4), Washout (7 days), read-out: Serum drug concentration of celecoxib): 4 ng/mL
- concentration at 60 min ([1]; serum, topical, 60 mg, Transdermal, 3% celecoxib in formulation 4, 120 mg/day, Chronic administration (6 days), read-out: Serum drug concentration of celecoxib): 221 ng/mL
- concentration at 60 min ([1]; serum, Oral, 30 mg capsule PO twice daily (60 mg/day), Chronic administration (6 days), read-out: Serum drug concentration of celecoxib): 312 ng/mL
- concentration at 7 days ([1]; synovial fluid, 30 mg, Oral, Washout (7 days), read-out: Synovial fluid drug concentration of celecoxib): 1 ng/mL
- concentration at 7 days ([1]; synovial fluid, topical, 60 mg, Transdermal (formulation 4), Washout (7 days), read-out: Synovial fluid drug concentration of celecoxib): 17 ng/mL
- concentration at 60 min ([1]; synovial fluid, topical, 60 mg, Transdermal, 3% celecoxib in formulation 4, 120 mg/day, Chronic administration (6 days), read-out: Synovial fluid drug concentration of celecoxib): 203 ng/mL
- concentration at 60 min ([1]; synovial fluid, Oral, 30 mg capsule PO twice daily (60 mg/day), Chronic administration (6 days), read-out: Synovial fluid drug concentration of celecoxib): 76 ng/mL
- Serum drug concentration of celecoxib [1, 4]: 312 (±214) ng/mL
- Synovial fluid drug concentration of celecoxib [1, 4]: 76 (±57) ng/mL
- Synovial fluid drug concentration of celecoxib ([1]; Oral, Washout (7 days)): 1 (±1) ng/mL
- Serum drug concentration of celecoxib [1, 5]: 4 (±6) ng/mL
- Synovial fluid drug concentration of celecoxib [1, 5]: 17 (±35) ng/mL
- Serum drug concentration of celecoxib [1, 6]: 221 (±227) ng/mL
- Synovial fluid drug concentration of celecoxib [1, 6]: 203 (±165) ng/mL
- amount of drug the transdermal route requires to achieve the same circulating concentration as oral ([1]; chronic treatment, transdermal versus oral): twofold
- reduction of circulating drug concentrations by one week washout ([1]; serum, oral or transdermal): > 95%
- reduction of drug concentration by one week washout ([1]; synovial fluid, oral or transdermal): > 90%
- cumulative pain score in comparison to no treatment ([2]; 4 hours after treatment): significantly reduced
- cumulative pain score in comparison to no treatment ([2]; 8 hours after treatment): significantly reduced
- inflammation compared to Voltaren ([3]; 8 hours): significantly reduced inflammation
- percent baseline measure of inflammation (knee cap measurement) in comparison to no treatment ([3]; 24 hours): significantly reduced
- effects on inflammation compared to negative control ([3]; summary statement, no time point stated): no effects
